“And” between values parts separate entries of the source, which are not always exact repeats. Identical values can stand only once.
Columns and labels:
[1] = Plasma pharmacokinetics after IV or PO administration; format: in vivo; details: SD Rat, PO 40 mg/kg
[2] = system: Peritoneal derived inflammatory cells; experiment: In vitro immunomodulatory effect of tested PEG compounds (CD86 on CD19+ cells, LPS); format: cell-based, mouse; details: LPS 100 ng/ml, 24 h, various concentrations
Experimental: Peritoneal derived inflammatory cells were collected on day for post intraperitoneal injection of Thyoglicollate. Cells were cultured for 24 h in baseline condition (control), in the presence of LPS 100 ng/ml (LPS) or in the presence of LPS 100 ng/ml and various concentrations of different forms of Pegylated Pirfenidone (named C2 and C3 in FIG. 11A and C4 to C6 in FIG. 11B)). After the 24 h in culture cells were collected and analyzed via flow cytometry to assess the expression of CD86 on CD19+ cells (B lymphocytes). […] FIG. 11C reports the molecular weights of the tested forms of PEGylated Pirfenidone and the molecular weight (MW) ration between the tested compound and Pirfenidone).

naïve WT hearts = experiment: Flow cytometry of naïve WT hearts after Pirfenidone for 1 week; format: in vivo, mouse; details: Pirfenidone 1 week
Excerpt: Accordingly, we performed FACS analysis 4 days after DT injection.
In order to administer Pirfenidone, mice were fed powdered chow mixed with Pirfenidone (eNovation Chemicals, Bridgewater, NJ, USA, Cat #D404655) at 0.5% in weight or powdered chow alone. […] Unless specifically noted, mice were switched to a diet enriched with Pirfenidone 3 days prior to DT-induced injury or I/R-injury, and maintained on this diet throughout the duration of the experiments. In parallel studies, we fed mice normal chow prior to I/R injury and then administered Pirfenidone acutely at the time of cardiac injury. For these latter studies, mice were injected i.p. with diluent (200 μL phosphate-buffered solution [PBS]) or i.p. with Pirfenidone (200 μL of Pirfenidone [5 mg/mL] in PBS) after reperfusion and the morning after I/R injury (2 injections total). They were switched to Pirfenidone-enriched diet or control diet the evening of I/R injury and maintained on the same diet until completion of the experiment.
For flow cytometry experiments, mice were euthanized in a CO2 chamber and the hearts were perfused with cold PBS, carefully dissected from extracardiac tissue under a stereo microscope, finely minced, suspended in 3 ml of DMEM, and then digested with 120 U of DNAse (Sigma), 180 U of hyaluronidase (Sigma) and 1350 U of Collagenase (Sigma) for 60 minutes at 37Co. The digested material was filtered through 40 μm filters and pelleted by centrifugation (250×g for 3 minutes at 4° C.) in HBSS supplemented with 2% FCS+0.2% bovine serum albumin (BSA). Red blood cells were lysed in ACK lysis buffer (Invitrogen) for 15′ on ice and the remaining cells were resuspended in 300 μL of FACS buffer (PBS with 2% FCS and 2 mM EDTA). Cultured cells were collected for FACS analysis as described above and resuspended in 300 μL of FACS buffer. Samples were labeled with the fluorescently conjugated antibodies outlined in the table below. Cells were stained for 45 minutes on ice, and washed in FACS buffer prior to analysis. All antibodies from Biolegend were used at 0.2 μL per 300 μL sample, while antibodies from BD biosciences were used at 0.4 μL per 300 μL sample. FACS was performed on Beckton Dickinson analyzers (LSRII, Canto, X20 or Fortessa). Compensation controls were generated using UltraComp ebeads (Invitrogen, Carlsbad, CA, USA) and verified on single color control samples obtained staining primary splenocytes. For flow cytometry experiments that involved the DT injury model, we collected serum at the time of terminal sacrifice for quantification of troponin. […] Cell sorting was performed using a FACSAria sorting instrument (Beckton Dickinson) at the Washington University Department of Pathology Flow Cytometry and Sorting Core.

AUMC0-t, Mean [1]: 14976 h*h*ng/mL | Tmax ([1]; Sprague-Dawley, plasma, individual rats 7-9): 15 min
Compound: Cc1ccc(=O)n(-c2ccccc2)c1 [Pirfenidone, 5 methyl-1-phenyl-2-[H] pyridone]
Plasma concentrations of Pirfenidone ([1]; 8 h, individual rats 7-9, 40 mg/kg): BLOQ (Below lower limit of quantification (1 ng/mL)) and 23.6 ng/ml and 107 ng/ml | expression of CD86 on CD19+ cells [2]: reduced | number of CD45+ cells/mg tissue (naïve WT hearts; p=0.53): no significant effect | Ly6C+CD64 low/− monocytes (naïve WT hearts; p=0.81): no significant effect | CD64+Ly6Clow/− macrophages (naïve WT hearts; p=0.82): no significant effect | Ly6G+ neutrophils (naïve WT hearts; p=0.82): no significant effect | CD19+ B-lymphocytes (naïve WT hearts; p=0.94): no significant effect

— patent US12365651B2, “Use of pirfenidone and derivatives for modulation of B lymphocyte activity and organ protection from acute tissue damage” (Washington University, priority 2017, dated 2025)
